In ChEMBL document CHEMBL4017483, “Potent and selective oxytocin receptor agonists without disulfide bridges” (Bioorg Med Chem Lett, 2017):
Numbered stars: 1 amine (or outer) side, 2 acyl side, 3 side chain; on linkers, the order of the positions; unused ones are H or OH. Bridge positions count the residues as written; N and C are the ends. Square brackets hold non-standard residues; d marks the D form. Peptide text beside a SMILES is read from it. tBuAla = CC(C)(C)C[C@H](N)C(=O)O; X1 = O=C(CCC[*:2])[*:1]; Mpa = O=C(O)CCS

Tests used:
[1] = target: T1, Vasopressin V1b receptor (Homo sapiens, UniProt P47901); experiment: Agonist activity at human V1b receptor expressed in CHO cells assessed as calcium mobilization measured after 30 mins by Fluo-4-AM dye based FLIPR assay; format: cell-based
T1 sequence (P47901 whole entry): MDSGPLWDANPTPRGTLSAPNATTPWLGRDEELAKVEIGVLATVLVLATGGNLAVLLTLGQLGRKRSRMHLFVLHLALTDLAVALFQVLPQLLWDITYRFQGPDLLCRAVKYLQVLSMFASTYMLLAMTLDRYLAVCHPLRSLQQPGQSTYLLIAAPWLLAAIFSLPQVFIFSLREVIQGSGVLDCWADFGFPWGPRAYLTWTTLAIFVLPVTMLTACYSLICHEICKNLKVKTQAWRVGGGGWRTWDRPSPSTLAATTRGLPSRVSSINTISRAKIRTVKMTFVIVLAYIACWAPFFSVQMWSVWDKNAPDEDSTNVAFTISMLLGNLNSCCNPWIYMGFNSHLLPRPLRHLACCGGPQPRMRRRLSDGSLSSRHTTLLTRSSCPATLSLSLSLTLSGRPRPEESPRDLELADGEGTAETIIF

[2] = organism: Homo sapiens; experiment: Selectivity ratio of EC50 for human V1b receptor to EC50 for human OTR
[3] = organism: Homo sapiens; experiment: Selectivity ratio of EC50 for human V1a receptor to EC50 for human OTR
[4] = target: Vasopressin V1a receptor (Homo sapiens, UniProt P37288); experiment: Agonist activity at human V1a receptor expressed in CHO cells assessed as calcium mobilization measured after 30 mins by Fluo-4-AM dye based FLIPR assay; format: cell-based
[5] = target: T2, Oxytocin receptor (Homo sapiens, UniProt P30559); experiment: Agonist activity at human OTR expressed in CHO cells assessed as calcium mobilization measured after 30 mins by Fluo-4-AM dye based FLIPR assay; format: functional, cell-based
T2 sequence (P30559 whole entry): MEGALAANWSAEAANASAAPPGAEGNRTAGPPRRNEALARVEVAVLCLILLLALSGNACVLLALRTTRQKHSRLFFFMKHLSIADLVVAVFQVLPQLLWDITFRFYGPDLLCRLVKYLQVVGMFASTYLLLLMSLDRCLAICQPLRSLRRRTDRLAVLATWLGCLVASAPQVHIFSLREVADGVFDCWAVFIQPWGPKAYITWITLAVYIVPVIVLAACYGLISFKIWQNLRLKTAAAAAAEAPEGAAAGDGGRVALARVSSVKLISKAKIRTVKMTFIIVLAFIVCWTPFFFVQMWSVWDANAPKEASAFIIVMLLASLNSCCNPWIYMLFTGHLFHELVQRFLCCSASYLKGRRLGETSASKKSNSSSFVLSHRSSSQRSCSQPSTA

Chain of Vasopressin V1a receptor (P37288 whole entry): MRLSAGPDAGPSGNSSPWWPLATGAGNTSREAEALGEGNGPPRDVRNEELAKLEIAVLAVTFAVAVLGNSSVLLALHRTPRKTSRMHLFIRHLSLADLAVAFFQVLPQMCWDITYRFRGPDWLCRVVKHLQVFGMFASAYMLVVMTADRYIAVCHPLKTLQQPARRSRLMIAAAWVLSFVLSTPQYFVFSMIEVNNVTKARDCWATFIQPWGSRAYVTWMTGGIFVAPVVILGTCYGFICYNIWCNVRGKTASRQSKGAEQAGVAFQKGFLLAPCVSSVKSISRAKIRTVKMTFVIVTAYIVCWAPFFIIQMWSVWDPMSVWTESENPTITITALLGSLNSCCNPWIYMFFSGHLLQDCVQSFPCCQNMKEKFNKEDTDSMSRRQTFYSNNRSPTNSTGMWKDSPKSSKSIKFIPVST

Structure (SMILES) | EC50 [1] [nM] | Ratio EC50 [2] | Ratio EC50 [3] | EC50 [4] [nM] | EC50 [5] [nM]
CC[C@H](C)[C@@H]1NC(=O)[C@H](Cc2ccc(O)cc2)NC(=O)CCSSC[C@@H](C(=O)N2CCC[C@H]2C(=O)N[C@@H](CC(C)C)C(=O)NCC(N)=O)NC(=O)[C@H](CC(N)=O)NC(=O)[C@H](CC(C)C)NC1=O ([Mpa]YILNCPLG-NH2; disulfide 1-6) | 23 | 29 | > 100 | > 100 | 0.78
CC[C@H](C)[C@@H]1NC(=O)[C@H](Cc2ccc(O)cc2)NC(=O)CCSSC[C@@H](C(=O)N2CCCCC2C(=O)N[C@@H](CC(C)C)C(=O)NCC(N)=O)NC(=O)[C@H](CC(N)=O)NC(=O)[C@H](CCC(N)=O)NC1=O (stereo not given in full) | 4 | 310 | > 1000 | > 100 | 0.013
CC[C@H](C)[C@@H]1NC(=O)[C@H](Cc2ccc(O)cc2)NC(=O)CCSSC[C@@H](C(=O)N2CCC[C@H]2C(=O)N[C@@H](CCC(=O)O)C(=O)NCC(N)=O)NC(=O)[C@H](CC(N)=O)NC(=O)[C@H](CCC(N)=O)NC1=O ([Mpa]YIQNCPEG-NH2; disulfide 1-6) | > 100 | > 100 | > 100 | > 100 | 0.25
CC[C@H](C)[C@@H]1NC(=O)[C@H](Cc2ccc(O)cc2)NC(=O)CCSSC[C@@H](C(=O)NCC(=O)N[C@@H](CC(C)C)C(=O)NCC(N)=O)NC(=O)[C@H](CC(N)=O)NC(=O)[C@H](CCC(N)=O)NC1=O ([Mpa]YIQNCGLG-NH2; disulfide 1-6) | > 100 | > 1000 | > 1000 | > 100 | 0.013
CC[C@H](C)[C@@H]1NC(=O)[C@H](Cc2ccccc2)NC(=O)CCSSC[C@@H](C(=O)N2CCC[C@H]2C(=O)N[C@@H](CC(C)C)C(=O)NCC(N)=O)NC(=O)[C@H](CC(N)=O)NC(=O)[C@H](CCC(N)=O)NC1=O ([Mpa]FIQNCPLG-NH2; disulfide 1-6) | > 100 | > 100 | > 100 | > 100 | 0.19
CC[C@H](C)[C@@H]1NC(=O)[C@H](Cc2ccc(O)cc2)NC(=O)CCSSC[C@@H](C(=O)N2CCC[C@H]2C(=O)N[C@@H](CC(C)C)C(=O)NCC(N)=O)NC(=O)[C@H](CCC(=O)O)NC(=O)[C@H](CCC(N)=O)NC1=O ([Mpa]YIQECPLG-NH2; disulfide 1-6) | > 100 | > 1 | > 1 | > 100 | 89
CC[C@H](C)[C@@H]1NC(=O)[C@H](Cc2ccc(O)cc2)NC(=O)CCSSC[C@@H](C(=O)N2CCC[C@H]2C(=O)N[C@@H](CC(C)C)C(=O)N[C@@H](CC(C)C)C(N)=O)NC(=O)[C@H](CC(N)=O)NC(=O)[C@H](CCC(N)=O)NC1=O ([Mpa]YIQNCPLL-NH2; disulfide 1-6) | > 100 | > 10 | > 10 | > 100 | 1.6
CC[C@H](C)[C@@H]1NC(=O)[C@H](Cc2ccc(O)cc2)NC(=O)CCCSC[C@@H](C(=O)N2CCC[C@H]2C(=O)N[C@@H](CC(C)(C)C)C(=O)NCC(N)=O)NC(=O)[C@H](CC(N)=O)NC(=O)[C@H](CCC(N)=O)NC1=O (YIQNCP[tBuAla]G-NH2; linker N-5 via X1) | > 100 | > 10000 | > 10000 | > 100 | 0.0065
CC[C@H](C)[C@@H]1NC(=O)[C@H](Cc2ccc(O)cc2)NC(=O)CCSSC[C@@H](C(=O)N2CCC[C@H]2C(=O)N[C@@H](CC(C)C)C(=O)N[C@@H](C)C(N)=O)NC(=O)[C@H](CC(N)=O)NC(=O)[C@H](CCC(N)=O)NC1=O ([Mpa]YIQNCPLA-NH2; disulfide 1-6) | > 100 | > 10 | > 10 | > 100 | 1.4
S | > 100 | > 100 | > 100 | > 100 | 0.12
CC[C@H](C)[C@@H]1NC(=O)[C@H](Cc2ccc(O)cc2)NC(=O)CCSSC[C@@H](C(=O)N2CCC[C@H]2C(=O)N[C@@H](CC(C)C)C(=O)NNC(N)=O)NC(=O)[C@H](CC(N)=O)NC(=O)[C@H](CCC(N)=O)NC1=O | 7.3 | 970 | 9300 | 70 | 0.0075
